Measurements taken from US5607967A, “Treatment of alzheimer's disease with 5-(tetradecyloxy)-2-furan carboxylic acid” (Merck & Co., Inc., priority 1994, dated 1997).

Key:
[1] = test system: Dopamine D2 receptor antagonist (Haloperidol) induced catalepsy; test: Haloperidol induced catalepsy (Bar method); format: in vivo, rat; details: carrier pretreatment, 24 h later 0.1 mg/kg Haloperidol
[2] = biological target: T1, GR/NUC chimeric receptor (Homo sapiens, UniProt Q03181); test: Ligand dependent transcription assay, GR/NUC chimeric receptor with MMTV-luciferase reporter; format: cell-based
T1 construct: transfected cells, MMTV-luciferase
T1 sequence (Q03181 1-441): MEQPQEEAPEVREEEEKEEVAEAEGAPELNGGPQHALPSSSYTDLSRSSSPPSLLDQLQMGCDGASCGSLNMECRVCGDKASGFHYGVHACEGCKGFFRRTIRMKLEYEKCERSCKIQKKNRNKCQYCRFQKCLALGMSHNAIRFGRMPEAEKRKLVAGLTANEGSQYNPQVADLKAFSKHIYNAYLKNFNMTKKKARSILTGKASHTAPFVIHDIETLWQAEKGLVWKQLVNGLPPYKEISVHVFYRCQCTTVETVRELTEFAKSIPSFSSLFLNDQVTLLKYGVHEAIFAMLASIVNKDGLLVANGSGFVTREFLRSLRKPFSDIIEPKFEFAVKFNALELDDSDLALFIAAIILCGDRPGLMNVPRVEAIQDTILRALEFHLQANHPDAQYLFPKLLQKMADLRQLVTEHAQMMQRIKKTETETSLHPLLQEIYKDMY
T1 sequence (P06537 1-792 partner): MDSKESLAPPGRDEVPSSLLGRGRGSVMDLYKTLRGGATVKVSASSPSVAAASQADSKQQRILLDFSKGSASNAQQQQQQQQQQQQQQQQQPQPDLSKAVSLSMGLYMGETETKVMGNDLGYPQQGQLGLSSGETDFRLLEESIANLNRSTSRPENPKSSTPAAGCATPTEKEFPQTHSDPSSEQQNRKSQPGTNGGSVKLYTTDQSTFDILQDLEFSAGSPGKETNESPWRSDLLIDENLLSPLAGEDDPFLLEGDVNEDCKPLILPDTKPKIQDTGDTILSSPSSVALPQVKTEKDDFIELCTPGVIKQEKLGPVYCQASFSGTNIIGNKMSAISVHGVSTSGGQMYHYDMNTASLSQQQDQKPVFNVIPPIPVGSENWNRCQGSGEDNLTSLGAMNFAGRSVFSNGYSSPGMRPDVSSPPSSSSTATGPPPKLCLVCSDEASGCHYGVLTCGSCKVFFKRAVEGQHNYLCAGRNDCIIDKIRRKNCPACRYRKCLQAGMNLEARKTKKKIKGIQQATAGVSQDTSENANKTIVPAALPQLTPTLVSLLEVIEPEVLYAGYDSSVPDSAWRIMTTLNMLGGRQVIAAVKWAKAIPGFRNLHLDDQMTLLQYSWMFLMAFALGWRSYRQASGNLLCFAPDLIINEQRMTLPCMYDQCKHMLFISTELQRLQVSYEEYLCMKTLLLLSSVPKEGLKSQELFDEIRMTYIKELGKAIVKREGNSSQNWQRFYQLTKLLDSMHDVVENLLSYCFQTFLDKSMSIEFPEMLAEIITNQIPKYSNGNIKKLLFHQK
Description: (§1) Similar hybrid receptors GR/NER, GR/NUC and GR/PPAR, in identical expression plasmid backgrounds were prepared essentially as described for the construction of the GR/mPPAR and GR/NUC chimeric receptors in Schmidt et al., "Identification of a new member of the steroid hormone receptor superfamily that is activated by a peroxisome proliferator and fatty acids," Mol. Endocrinol., 6(10):1634-41, 1992, and in Boie et al., "Enantioselective activation of the peroxisome proliferator-activated receptor", J. Biol. Chem. 268(8):5530-4, 1993.
(§2) Briefly, the amino terminal portion of the mouse glucocorticoid receptor (mGR), that includes the DNA binding domain was fused to the putative ligand binding domains of the nuclear receptor NER, hNUC-I (Schmidt et al., 1992), mPPAR (Issenmann and Green, 1990) to form the respective chimeric receptors GR/NER, GR/NUC and GR/PPAR. The GR/NER chimeric receptor was constructed as described for the GR/NUC and GR/PPAR hybrid receptors (Schmidt et al., 1992; Boie et al). The cDNA sequences coding for amino acids Arg^155 and Glu^156 of the NER receptor were converted to the Xho I restriction site, that was later used for the ligation to the GR cDNA sequences that coded for the DNA binding domain. Thus, converting amino acid residues Arg^155 and Glu^156 of NER receptor to amino acid residues Ser^155 and His^156.

[3] = biological target: T2, human NUCI receptor (Homo sapiens, UniProt Q03181); test: Transcription assay, native NUC-I receptor co-transfected with MMTV-luciferase reporter; details: read-out: Fold of stimulation NUC-I
T2 sequence (Q03181 1-441): T1 sequence (Q03181 1-441)
Description: (§3) The reporter gene was the plasmid pJA358 in which the expression of firefly luciferase is regulated by two tandem repeats of the glucocorticoid hormone response element (GRE) linked to the MMTV promoter (Boie et al., 1993).
(§4) Transient transfection of COS and CV1 cells was performed as described (Schmidt 1992). Cells were plated (1.5×10^5 in 1 mL) into 12 well dishes in phenol red-free medium supplemented with activated charcoal treated fetal calf serum. The next day 0.12 mL of DNA 10 μg/ml (5 μg receptor DNA and 5 μg reporter plasmid), as a calcium phosphate precipitate, was added to the cells. Ligands were added to the cells 30 minutes after transfection. The next day (18 hours), the cells were washed and fresh ligands added. Twenty-four hours later, cell extracts were prepared and assayed for luciferase enzyme activity using the luciferase assay system (Promega Madison, Wis.). Each transfection was performed in triplicate and the luciferase activity of each sample measured in duplicate using the AutoClinilumat (Berthold Nashua, N.H.).
(§5) The transfected cells were treated with TOFA at 2 μM, 10 μM, 20 μM, and 50 μM and oleic acid at 50 μM, and 300 μM.

[4] = biological target: T3, native mouse glucocorticoid receptor (Mus musculus, UniProt P06537); test: Transcription assay, native glucocorticoid receptor co-transfected with MMTV-luciferase reporter; details: read-out: Fold of stimulation GR
T3 sequence (P06537 1-792): T1 sequence (P06537 1-792 partner)
Description: as §3, §4, §5

[5] = biological target: T4, GR/PPAR chimeric receptor (Mus musculus, UniProt P23204); test: Ligand dependent transcription assay, GR/PPAR chimeric receptor with MMTV-luciferase reporter; format: cell-based; details: read-out: Fold of stimulation GR/PPAR
T4 construct: COS cells, MMTV-luciferase
T4 sequence (P23204 1-468): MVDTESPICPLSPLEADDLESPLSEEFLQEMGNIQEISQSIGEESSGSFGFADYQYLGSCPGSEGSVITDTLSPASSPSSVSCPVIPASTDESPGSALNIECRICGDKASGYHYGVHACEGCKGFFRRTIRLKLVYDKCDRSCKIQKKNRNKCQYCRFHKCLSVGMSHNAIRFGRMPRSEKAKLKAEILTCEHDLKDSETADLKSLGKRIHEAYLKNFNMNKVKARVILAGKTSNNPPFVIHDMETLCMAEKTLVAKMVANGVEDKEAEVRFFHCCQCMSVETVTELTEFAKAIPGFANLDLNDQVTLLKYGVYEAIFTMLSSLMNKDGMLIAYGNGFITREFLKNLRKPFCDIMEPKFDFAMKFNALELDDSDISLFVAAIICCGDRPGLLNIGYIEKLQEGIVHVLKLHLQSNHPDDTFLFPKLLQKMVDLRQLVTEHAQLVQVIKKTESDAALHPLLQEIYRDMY
T4 sequence (P06537 1-792 partner): T1 sequence (P06537 1-792 partner)

[6] = biological target: T4, GR/PPAR chimeric receptor; test: as above; format: cell-based
Description: as §1, §2
The ligand transcription assay mediated by GR/PPAR in COS cells was performed as described in Example 4. The cells were treated with TOFA and Cerulenin at 0.1, 1, 10 and 100 μM.

[7] = test system: GR/NER chimeric receptor; test: Ligand dependent transcription assay, GR/NER chimeric receptor with MMTV-luciferase reporter; format: cell-based, human
Description: To search for putative ligands for the NER receptor, the chimeric receptor GR/NER was prepared. […] Chimeric receptors were prepared in which the amino terminal portion of the mouse glucocorticoid receptor (mGR) that includes the DNA binding domain was fused to the putative ligand binding domains of the nuclear receptor NER to form the respective chimeric receptor GR/NER. The cDNA sequences coding for amino acid residues Arg^155 and Glu^156 of the hNER receptor (Shinar et al., NER, a new member of a gene family encoding the steroid hormone nuclear receptor; GENE (in press) were convened to the Xho I restriction site, which site was later used for the ligation to the GR cDNA sequences that coded for the DNA binding domain. Thus, the amino acid residues Arg^155 and Glu^156 of the NER receptor were convened to amino acid residues Ser^155 and His^156.
The chimera was employed in ligand dependent transactivation assays with the reporter gene MMTV-luciferase, in which the luciferase cDNA is transcribed under the control of the MMTV promoter.
as §1, §2

[8] = test system: PC12 cells; test: Neurite differentiation of PC12 cells; format: cell-based; details: NGF alone (100 ng/mL), 4 days
Description: To further study the influence of TOFA on the nervous system, we tested the effect of TOFA on the differentiation of PC12 cells. PC12 cells were plated at a density of approximately 100-200/mm^2 on collagen coated plates or dishes in RPMI medium supplemented with 10% horse serum, 5% fetal calf serum, […] streptomycin, 50 U/mL penicillin in a water saturated atmosphere of 95% air and 5% CO2, at 37° C. overnight. Medium was replaced with fresh RPMI containing 1.5% serum, 100 ng/mL NGF and the indicated concentration of TOFA or an equivalent volume of vehicle (DMSO) giving a final concentration of 0.1% DMSO.
At different time points during the treatment, cells were photographed or fixed with 10% formalin. Morphology was examined after four days of treatment with TOFA or vehicle (DMSO). The number of cells beating neurites and average length of neurites were determined with the aid of the Bioquant imaging system. […] However, as depicted in Table 6 below, NGF alone induced a 15% increase in the number of cells bearing neurites and these outgrowths reached a mean length of 20 μm. Treatment with NGF and TOFA increased the percentage of cells beating neurites to 78%. Maximal neurite generation is observed at a concentration of 10 μM TOFA.
Cells were treated with vehicle (0.1% DMSO) or various concentrations of TOFA in the presence of 100 ng/mL NGF for 4 days, and then fixed with 10% formalin. At least eighty cells from eight wells were analyzed in each group. The results are shown as the mean ±SEM. ^a p<0.01, versus vehicle by Dunnetts test.

[9] = test system: GR/NER chimeric receptor; test: Activation of GR/NER in COS-7 cells (luciferase); details: for Fold of stimulation GR/NER: no TOFA
Description: The ligand dependent transcription assays were performed as described in Example 4. The transfected COS cells were treated with dopamine, TOFA, or with the combination of TOFA and dopamine at the indicated concentrations and tested for luciferase activity.

[10] = test system: GR/NER chimeric receptor; test: Activation of GR/NER in CV1 cells (luciferase); details: for Fold of stimulation GR/NER: no TOFA
Description: The ligand dependent transcription assays were performed as described in Example 4, using CV1 cells in place of COS cells. The transfected CV1 cells were treated with dopamine, TOFA, or with a combination of TOFA and dopamine at the indicated concentrations and tested for luciferase activity.
CV1 cells were co-transfected with the MMTV-Luciferase reporter gene (pJA358) and the GR/NER chimeric receptor as described in Example 4. The cells were treated with increasing amount of the dopamine D1 receptor antagonist SCH 23390 with or without 50 μM […] dopamine.

Compound: O=C(CCCN1CCC(O)(c2ccc(Cl)cc2)CC1)c1ccc(F)cc1 [Haloperidol, haloperidol, reference compound]
- Catalepsy Duration [1]: 20.3 ± 6.7 s

Compound: CCCCCCCC/C=C\CCCCCCCC(=O)O [Oleic Acid, oleic acid, reference compound]
- Expression mediated by GR/NUC [2]: activated expression
- fold induction at 150 µM ([2]; read-out: Fold of stimulation GR/NUC): 3.42 ± 0.28
- fold induction at 150 µM [3]: 0.55 ± 0.08
- fold induction at 150 µM [4]: 0.44 ± 0.17
- fold induction at 50 µM [5]: 2.87 ± 0.2
- fold induction at 300 µM [5]: 14.69 ± 0.06
- Expression mediated by GR/PPAR [6]: activated expression
- Expression mediated by GR/NER [7]: not by the GR/NER chimera
- Fold of stimulation GR/NER ([7]; 50 μM): 0.90 ± 0.13 fold
- Fold of stimulation GR/NER ([7]; 300 μM): 0.73 ± 0.21 fold

Compound: NGF: nerve growth factor
- Mean length of neurite outgrowths [8]: 20 μm
- Number of cells bearing neurites [8]: 15%

Compound: Cc1cccc(Nc2cc(Cl)nc(SCC(=O)O)n2)c1C [WY14643, reference compound]
- Expression mediated by GR/PPAR [6]: activated expression
- Expression mediated by GR/NER [7]: not by the GR/NER chimera

Compound: NCCc1ccc(O)c(O)c1 [Dopamine, dopamine]
- Fold of stimulation GR/NER ([9]; dopamine 0.1 μM, 1440 min): 1.10 ± 0.07 fold
- Fold of stimulation GR/NER ([9]; dopamine 1.0 μM): 0.87 ± 0.06 fold
- Fold of stimulation GR/NER ([9]; dopamine 10 μM, 1440 min): 0.84 ± 0.08 fold
- Fold of stimulation GR/NER ([9]; dopamine 100 μM, 1440 min): 0.87 ± 0.11 fold
- Suppression of GR/NER mediated transcription in COS-7 cells ([9]; no significant dopamine D1 receptor expression): suppression was not seen
- Effect on transcription mediated by GR/NER in CV1 cells [10]: suppressed the transcription
- Fold of stimulation GR/NER ([10]; dopamine 0.1 μM): 1.28 ± 0.05 fold
- Fold of stimulation GR/NER ([10]; dopamine 1.0 μM): 0.88 ± 0.11 fold
- Fold of stimulation GR/NER ([10]; dopamine 10 μM): 0.55 ± 0.06 fold
- Fold of stimulation GR/NER ([10]; dopamine 100 μM): 0.44 ± 0.14 fold
